“And” between values parts separate entries of the source, which are not always exact repeats. Identical values can stand only once. Toxic doses and inconclusive results are not listed.
Tested on: BDF1 mice, P388 leukemia ip, median survival T/C
Experiment: NCI In Vivo Anticancer Drug Screen. Data for tumor model P388 Leukemia (intraperitoneal) in B6D2F1 (BDF1) mice
Conditions: endpoint: median survival time, higher = longer survival
How it was run: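 Survival ratio, drug arm over vehicle arm, in mice with a transplanted tumour.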

[1] = dose: 25.0 mg/kg/injection, schedule: Q01DX009 (ip), vehicle: Klucel (hydroxypropylcellulose) (HPC)
[2] = dose: 25.0 mg/kg/injection, schedule: Q01DX009 (ip), vehicle: saline with Tween-80
[3] = dose: 50.0 mg/kg/injection, schedule: Q01DX009 (ip), vehicle: Klucel (hydroxypropylcellulose) (HPC)
[4] = dose: 50.0 mg/kg/injection, schedule: Q01DX009 (ip), vehicle: saline with Tween-80
[5] = dose: 100.0 mg/kg/injection, schedule: Q01DX009 (ip), vehicle: Klucel (hydroxypropylcellulose) (HPC)
[6] = dose: 200.0 mg/kg/injection, schedule: Q01DX009 (ip), vehicle: Klucel (hydroxypropylcellulose) (HPC)
[7] = dose: 400.0 mg/kg/injection, schedule: Q01DX009 (ip), vehicle: Klucel (hydroxypropylcellulose) (HPC)
[8] = dose: 25.0 mg/kg/injection, schedule: Q04DX003 (ip), vehicle: saline with Tween-80
[9] = dose: 50.0 mg/kg/injection, schedule: Q04DX003 (ip), vehicle: saline with Tween-80
[10] = dose: 100.0 mg/kg/injection, schedule: Q04DX003 (ip), vehicle: saline with Tween-80
[11] = dose: 200.0 mg/kg/injection, schedule: Q04DX003 (ip), vehicle: saline with Tween-80
[12] = dose: 100.0 mg/kg/injection, schedule: Q01DX009 (ip), vehicle: saline with Tween-80
[13] = dose: 200.0 mg/kg/injection, schedule: Q01DX009 (ip), vehicle: saline with Tween-80
[14] = dose: 12.5 mg/kg/injection, schedule: Q01DX009 (ip), vehicle: Klucel (hydroxypropylcellulose) (HPC)
[15] = dose: 200.0 mg/kg/injection, schedule: Q04DX003 (ip), vehicle: Klucel (hydroxypropylcellulose) (HPC)
[16] = dose: 400.0 mg/kg/injection, schedule: Q01DX009 (ip), vehicle: saline with Tween-80
[17] = dose: 400.0 mg/kg/injection, schedule: Q04DX003 (ip), vehicle: saline with Tween-80
[18] = dose: 100.0 mg/kg/injection, schedule: Q04DX003 (ip), vehicle: Klucel (hydroxypropylcellulose) (HPC)
[19] = dose: 400.0 mg/kg/injection, schedule: Q04DX003 (ip), vehicle: Klucel (hydroxypropylcellulose) (HPC)
[20] = dose: 1.0 mg/kg/injection, schedule: Q01DX009 (ip), vehicle: Klucel (hydroxypropylcellulose) (HPC)
[21] = dose: 2.0 mg/kg/injection, schedule: Q01DX009 (ip), vehicle: Klucel (hydroxypropylcellulose) (HPC)
[22] = dose: 4.0 mg/kg/injection, schedule: Q01DX009 (ip), vehicle: Klucel (hydroxypropylcellulose) (HPC)
[23] = dose: 8.0 mg/kg/injection, schedule: Q01DX009 (ip), vehicle: Klucel (hydroxypropylcellulose) (HPC)

CN1C(=O)CC2(CCN(CCCC(=O)c3ccc(F)cc3)CC2)C1=O
T/C (dose: 6.25 mg/kg/injection, schedule: Q01DX009 (ip), vehicle: saline with Tween-80): 116 % of control | T/C (dose: 12.5 mg/kg/injection, schedule: Q01DX009 (ip), vehicle: saline with Tween-80): 107 % of control | T/C [1]: 118 % of control | T/C [2]: 124 % of control | T/C [3]: 120 % of control | T/C [4]: 97 % of control

Cc1c(O)c([N+](=O)[O-])cc2c1OCOC2
T/C [5]: 95 % of control | T/C [6]: 104 % of control | T/C [7]: 95 % of control

COc1cc(C=Nc2ccc(-c3nc(C)sc3C)cc2)ccc1N(CCCl)CCCl
T/C (dose: 16.5 mg/kg/injection, schedule: Q04DX003 (ip), vehicle: Klucel (hydroxypropylcellulose) (HPC)): 300 % of control | T/C (dose: 25.0 mg/kg/injection, schedule: Q04DX003 (ip), vehicle: Klucel (hydroxypropylcellulose) (HPC)): 231 % of control and 300 % of control | T/C (dose: 37.5 mg/kg/injection, schedule: Q04DX003 (ip), vehicle: Klucel (hydroxypropylcellulose) (HPC)): 300 % of control

COc1ccc(C[n+]2cc([O-])on2)cc1
T/C [8]: 100 % of control | T/C [9]: 100 % of control | T/C [10]: 109 % of control and 113 % of control | T/C [11]: 113 % of control

O=C(O)c1oc2ccccc2c1CO
T/C [4]: 99 % of control | T/C [12]: 101 % of control | T/C [13]: 105 % of control

CCCCCCCCCCCCCCCC[N+]1(C)CCN(SN2CC[N+](C)(CCCCCCCCCCCCCCCC)CC2)CC1
T/C (dose: 50.0 mg/kg/injection, schedule: Q01DX009 (ip), vehicle: saline): 100 % of control | T/C (dose: 100.0 mg/kg/injection, schedule: Q01DX009 (ip), vehicle: saline): 103 % of control | T/C (dose: 100.0 mg/kg/injection, schedule: Q04DX003 (ip), vehicle: saline): 104 % of control | T/C (dose: 200.0 mg/kg/injection, schedule: Q04DX003 (ip), vehicle: saline): 104 % of control

COc1cc2oc3c(c(=O)c2c(O)c1/C=C/C(C)C)C(C=C(C)C)Oc1cc(O)ccc1-3 (stereo not given)
T/C (dose: 6.25 mg/kg/injection, schedule: Q01DX009 (ip), vehicle: Klucel (hydroxypropylcellulose) (HPC)): 94 % of control | T/C [14]: 110 % of control | T/C [1]: 108 % of control | T/C [3]: 100 % of control | T/C [5]: 107 % of control

CCC(C)C(C)(COC(N)=O)COC(N)=O (stereo not given)
T/C [5]: 90 % of control | T/C [6]: 86 % of control | T/C [7]: 95 % of control

CCCCCCCC(=O)Oc1c(Cl)c(Cl)c(C#N)c(Cl)c1C#N
T/C [4]: 119 % of control

CCCCOC(=O)c1[nH]cnc1/N=N\N(C)C
T/C [14]: 104 % of control | T/C [1]: 109 % of control | T/C [3]: 104 % of control | T/C [5]: 100 % of control | T/C (dose: 132.0 mg/kg/injection, schedule: Q04DX003 (ip), vehicle: Klucel (hydroxypropylcellulose) (HPC)): 100 % of control and 113 % of control | T/C [15]: 95 % of control and 113 % of control | T/C (dose: 300.0 mg/kg/injection, schedule: Q04DX003 (ip), vehicle: Klucel (hydroxypropylcellulose) (HPC)): 109 % of control and 118 % of control

COc1ccc(C2(C(=O)O)CCCC2)cc1
T/C [12]: 95 % of control | T/C [10]: 104 % of control | T/C [13]: 91 % of control | T/C [11]: 100 % of control | T/C [16]: 91 % of control | T/C [17]: 112 % of control

NC(Cc1ccc(O)cc1)C(=O)O (stereo not given)
T/C [12]: 100 % of control | T/C [10]: 100 % of control | T/C [13]: 92 % of control | T/C [11]: 91 % of control | T/C [17]: 95 % of control

CC1CCOS(=O)O1 (stereo not given)
T/C (dose: 10.0 mg/kg/injection, schedule: Q01DX010 (ip), vehicle: saline): 100 % of control | T/C (dose: 20.0 mg/kg/injection, schedule: Q01DX010 (ip), vehicle: saline): 95 % of control and 104 % of control | T/C (dose: 40.0 mg/kg/injection, schedule: Q01DX010 (ip), vehicle: saline): 100 % of control and 104 % of control

CC1(C)C2CCC1(C)C1OC(=O)NN=C21 (stereo not given)
T/C (dose: 12.5 mg/kg/injection, schedule: Q01DX001 (ip), vehicle: saline with Tween-80): 100 % of control | T/C (dose: 25.0 mg/kg/injection, schedule: Q01DX001 (ip), vehicle: saline with Tween-80): 98 % of control | T/C (dose: 50.0 mg/kg/injection, schedule: Q01DX001 (ip), vehicle: saline with Tween-80): 103 % of control

COc1c(Br)cc(Br)cc1Br
T/C [18]: 108 % of control | T/C [15]: 100 % of control | T/C [19]: 100 % of control

Oc1cccc2ccc(CC(O)(c3ccccc3)c3ccccc3)nc12
T/C [2]: 108 % of control | T/C [4]: 99 % of control | T/C [12]: 108 % of control

CC#CC#C/C=C1\OC2(CCCCO2)C(O)C1OC(=O)CC(C)C (stereo not given)
T/C (dose: 10.0 mg/kg/injection, schedule: Q01DX009 (ip), vehicle: Klucel (hydroxypropylcellulose) (HPC)): 100 % of control | T/C (dose: 20.0 mg/kg/injection, schedule: Q01DX009 (ip), vehicle: Klucel (hydroxypropylcellulose) (HPC)): 102 % of control | T/C (dose: 40.0 mg/kg/injection, schedule: Q01DX009 (ip), vehicle: Klucel (hydroxypropylcellulose) (HPC)): 111 % of control

[N-]=[N+]=C1C(=O)NC(=O)N2C3CC(O)C(COC12)O3 (stereo not given)
T/C (dose: 132.0 mg/kg/injection, schedule: Q01DX009 (ip), vehicle: saline with Tween-80): 154 % of control | T/C [13]: 159 % of control and 170 % of control | T/C (dose: 300.0 mg/kg/injection, schedule: Q01DX009 (ip), vehicle: saline with Tween-80): 170 % of control and 177 % of control

C[n+]1ccc(Nc2ccc(NC(=O)c3ccc(Nc4cc[n+](C)c5ccc(N)cc45)cc3)cc2)cc1
T/C [20]: 211 % of control | T/C [21]: 170 % of control and 195 % of control | T/C (dose: 3.24 mg/kg/injection, schedule: Q04DX003 (ip), vehicle: water): 173 % of control | T/C [22]: 243 % of control and 250 % of control | T/C (dose: 4.32 mg/kg/injection, schedule: Q01DX009 (ip), vehicle: water): 254 % of control | T/C (dose: 5.4 mg/kg/injection, schedule: Q04DX003 (ip), vehicle: water): 180 % of control | T/C (dose: 7.2 mg/kg/injection, schedule: Q01DX009 (ip), vehicle: water): 261 % of control | T/C [23]: 244 % of control and 250 % of control | T/C (dose: 9.0 mg/kg/injection, schedule: Q04DX003 (ip), vehicle: water): 220 % of control | T/C (dose: 15.0 mg/kg/injection, schedule: Q04DX003 (ip), vehicle: water): 103 % of control

O=C1NC(=O)C(CSCc2ccccc2)(CSCc2ccccc2)N1
T/C (dose: 3.12 mg/kg/injection, schedule: Q04DX003 (ip), vehicle: saline with Tween-80): 101 % of control | T/C (dose: 6.25 mg/kg/injection, schedule: Q04DX003 (ip), vehicle: saline with Tween-80): 102 % of control | T/C (dose: 12.5 mg/kg/injection, schedule: Q04DX003 (ip), vehicle: saline with Tween-80): 99 % of control | T/C [2]: 99 % of control | T/C [8]: 98 % of control | T/C [4]: 107 % of control | T/C [12]: 92 % of control | T/C [16]: 86 % of control

CCCNC(=O)OCC#CC#CCOC(=O)NCCC
T/C [5]: 86 % of control | T/C [18]: 90 % of control | T/C [6]: 100 % of control | T/C [15]: 95 % of control | T/C [7]: 104 % of control | T/C [19]: 113 % of control

COC(=O)C1CC(=O)N(C)c2sc(C)c(C)c2C1=O (stereo not given)
T/C [8]: 107 % of control | T/C [4]: 111 % of control | T/C [9]: 92 % of control and 94 % of control | T/C [12]: 111 % of control | T/C [10]: 92 % of control | T/C [13]: 92 % of control | T/C [11]: 95 % of control and 104 % of control | T/C [17]: 100 % of control and 107 % of control | T/C (dose: 500.0 mg/kg/injection, schedule: Q04DX003 (ip), vehicle: saline with Tween-80): 100 % of control

BrC(Br)c1ccc2ccccc2n1
T/C [5]: 108 % of control | T/C [18]: 100 % of control | T/C [6]: 108 % of control | T/C [15]: 91 % of control | T/C [7]: 95 % of control | T/C [19]: 91 % of control

O=S(=O)([O-])NC1CCCCC1.O=S(=O)([O-])NC1CCCCC1.[Hg+2].[Hg+2].[Hg+2].[O-2].[O-2]
T/C (dose: 0.5 mg/kg/injection, schedule: Q01DX009 (ip), vehicle: Klucel (hydroxypropylcellulose) (HPC)): 99 % of control | T/C [20]: 111 % of control | T/C [21]: 111 % of control | T/C [22]: 121 % of control | T/C [23]: 101 % of control

Cc1csc(/N=C/c2ccc([N+](=O)[O-])o2)n1
T/C [9]: 109 % of control | T/C [10]: 118 % of control | T/C [11]: 113 % of control
